Columns and labels:
MRC-5 lung fibroblasts = assay: MTS cytotoxicity assay, 72 h, MRC-5 fibroblasts; type: cell-based, human; conditions: normal fibroblasts; for IC50: Homo sapiens, MRC5, 72 h
Method: (§1) Based on the preliminary results and tests of a larger library of known triterpenoids, a small set of 2-substituted lupane and 18α-oleanane derivatives was designed and synthesized. As the first step, the cytotoxic activity of the synthesized derivatives was assessed using an MTS assay following 72 h of treatment (Table 1). Selected cell lines A549 (lung adenocarcinoma) and DU-145 (prostate cancer) are both dependent on Hh signaling. In addition, K562 (chronic myelogenous leukemia) was included as a cell line sensitive to Hh inhibitors[32] and a type of hematological malignancy with active Hh signaling.[33] MRC-5 lung fibroblasts and BJ human skin fibroblasts cell lines were used to evaluate the toxicity against nontumor cells. Compounds were also tested using the standard panel of other cancer cell lines, as described in our earlier work (Table 1).[27]
(§2) The human prostate tumor-derived cell line DU145 was obtained from ATCC (American Type Culture Collection) and cultured in RPMI 1640 (Roswell Park Memorial Institute) medium supplemented with 10% (v/v) fetal bovine serum (FBS). Human prostate tumor-derived LNCaP cells were obtained from ATCC and cultured in RPMI 1640 medium supplemented with 10% FBS. The human nonsmall cell lung carcinoma (NSCLC)-derived cell line HOP-62 was obtained from the DSMZ (German Collection of Microorganisms and Cell Cultures) and cultured in RPMI 1640 medium supplemented with 10% FBS. The human nonsmall cell lung carcinoma-derived cell line NCI-H322 was obtained from ECACC (European Collection of Authenticated Cell Cultures) and cultured in RPMI 1640 medium supplemented with 10% FBS. The human nonsmall cell lung carcinoma-derived cell line NCI-H522 was obtained from ATCC and cultured in RPMI 1640 medium supplemented with 10% FBS. The human lung tumor-derived cell line A549 was obtained from ATCC and cultured in Dulbecco’s Modified Eagle’s Medium (DMEM) supplemented with 10% FBS. The human medulloblastoma-derived cell line DAOY was obtained from ATCC and cultured in Eagle’s Minimum Essential Medium (EMEM) supplemented with 10% FBS. The human glioblastoma-derived cell line T98G was obtained from ATCC and cultured in EMEM medium supplemented with 10% FBS, 1 mmol/L sodium pyruvate, and 1 mmol/L nonessential amino acid mixture. All the above-mentioned cell lines were cultured at 37 °C in an atmosphere of 5% CO2 with 95% humidity. The cytotoxicity MTS assays were performed using MTS (3-(4,5-dimethylthiazol-2-yl)-5-(3-carboxymethoxyphenyl)-2-(4-sulfophenyl)-2H-tetrazolium) tetrazolium salt. Briefly, cells were seeded in a 384-well transparent plate in a volume of 25 μL and a concentration of 15,000 cells/mL (DU145, LNCaP, HOP-62, A549, DAOY, T98G) or 30,000 cells/mL (NCI-H322, NCI-H522). The next day, cells were exposed to compounds in a concentration range of 50–0.0975 μmol/L (dilution factor 2) and cultured in the presence of the compounds for 72 h. After 72 h, 5 μL of MTS/phenazine methosulfate solution was pipetted into each well and incubation continued for 1–4 h. Finally, the absorbance at 490 nm was measured using an EnVision multifunctional modular reader (PerkinElmer). The IC50 value was determined using Dotmatics software.

CCRF-CEM = assay: MTS cytotoxicity assay, 72 h, CCRF-CEM; type: cell-based; conditions: for IC50: Homo sapiens, CCRF-CEM, 72 h, MTS
Method: as §1, §2

[1] = test system: A549 (lung adenocarcinoma); assay: MTS cytotoxicity assay, 72 h, A549; type: cell-based; conditions: Homo sapiens, A549, 72 h
Method: as §1, §2

DU-145 (prostate cancer) = assay: MTS cytotoxicity assay, 72 h, DU-145; type: cell-based, human
Method: as §1, §2

CEM-DNR = assay: MTS cytotoxicity assay, 72 h, CEM-DNR; type: cell-based; conditions: Homo sapiens
Method: as §1, with “1).[27] […]” for “1).[27]”

U2OS = assay: MTS cytotoxicity assay, 72 h, U2OS; type: cell-based; conditions: Homo sapiens
Method: as §1, §2

K562-TAX = assay: MTS cytotoxicity assay, 72 h, K562-TAX; type: cell-based
Method: as §1, §2

[2] = test system: K562 (chronic myelogenous leukemia); assay: MTS cytotoxicity assay, 72 h, K562; type: cell-based; conditions: Homo sapiens
Method: as §1, §2

[3] = test system: BJ human skin fibroblasts; assay: MTS cytotoxicity assay, 72 h, BJ fibroblasts; type: cell-based; conditions: normal fibroblasts; for IC50: Homo sapiens, Skin fibroblast
Method: as §1, §2

HCT 116 = assay: MTS cytotoxicity assay, 72 h, HCT 116; type: cell-based; conditions: Homo sapiens, HCT-116, 72 h
Method: as §1, §2

HCT116 p53–/– = assay: MTS cytotoxicity assay, 72 h, HCT116 p53–/–; type: cell-based; conditions: Homo sapiens, HCT-116, 72 h
Method: as §1, §2

[4] = CCRF-CEM vs average of BJ and MRC-5, full Table S1
[5] = Homo sapiens, DU-145, 72 h, full Table S1
[6] = IC50 of CCRF-CEM line vs average of both fibroblasts (BJ and MRC-5), Table 1
[7] = Homo sapiens, DU-145, 72 h, Table 1

| SMILES | IC50 (MRC-5 lung fibroblasts; full Table S1) [µM] | SI (selectivity index) (CCRF-CEM; [4]) | IC50 (CCRF-CEM; full Table S1) [µM] | IC50 ([1]; full Table S1) [µM] | IC50 (DU-145 (prostate cancer); [5]) [µM] | IC50 (CEM-DNR; full Table S1) [µM] | IC50 (U2OS; full Table S1) [µM] | IC50 (K562-TAX; full Table S1) [µM] | IC50 ([2]; full Table S1) [µM] | IC50 ([3]; full Table S1) [µM] | IC50 (HCT 116; full Table S1) [µM] | IC50 (HCT116 p53–/–; full Table S1) [µM] | IC50 (MRC-5 lung fibroblasts; Table 1) [µM] | IC50 (CCRF-CEM; Table 1) [µM] | IC50 ([1]; Table 1) [µM] | IC50 (DU-145 (prostate cancer); [7]) [µM] | IC50 (CEM-DNR; Table 1) [µM] | IC50 (U2OS; Table 1) [µM] | IC50 (K562-TAX; Table 1) [µM] | IC50 ([2]; Table 1) [µM] | further results |
| --- | --- | --- | --- | --- | --- | --- | --- | --- | --- | --- | --- | --- | --- | --- | --- | --- | --- | --- | --- | --- | --- |
| CC1(C)C(=O)C(c2cccs2)=C[C@@]2(C)C1CC[C@]1(C)C2CCC2C3[C@H]4OC[C@@]3(CCC4(C)C)CC[C@]21C (stereo partly drawn) [Compound 4c, 2-(Thiophene-2-yl)-19β,28-epoxyolean-1-en-3-one] | > 50 | > 1.0 | > 50 | > 50 | > 50 | > 50 | > 50 | > 50 | > 50 | > 50 | > 50 | > 50 | – | – | – | – | – | – | – | – | – |
| CC1(C)C(=O)C(c2cccnc2)=C[C@@]2(C)C1CC[C@]1(C)C2CCC2C3[C@H]4OC[C@@]3(CCC4(C)C)CC[C@]21C (stereo partly drawn) [Compound 4g, 2-(Pyridin-3-yl)-19β,28-epoxyolean-1-en-3-one] | – | – | 25.4 | – | 43.3 | 15.5 | – | – | – | – | – | – | > 50 | 25 | > 50 | 43 | 16 | > 50 | 19 | > 50 | SI (selectivity index) (CCRF-CEM; [6]): >2.0; IC50 ([3]; Table 1): > 50 µM; IC50 (HCT 116; Table 1): > 50 µM; IC50 (HCT116 p53–/–; Table 1): > 50 µM |
| CC1(C)C(=O)C(c2cncnc2)=C[C@@]2(C)C1CC[C@]1(C)C2CCC2C3[C@H]4OC[C@@]3(CCC4(C)C)CC[C@]21C (stereo partly drawn) [Compound 4i, 2-(Pyrimidin-5-yl)-19β,28-epoxyolean-1-en-3-one] | – | – | – | – | – | 27.4 | – | – | – | – | – | – | > 50 | > 50 | > 50 | > 50 | 27 | > 50 | > 50 | > 50 | IC50 ([3]; Table 1): > 50 µM; IC50 (HCT 116; Table 1): > 50 µM; IC50 (HCT116 p53–/–; Table 1): > 50 µM |
| C=C(C)[C@@H]1CC[C@]2(C(=O)O)CC[C@]3(C)C(CCC4[C@@]5(C)C=C(c6ccncc6)C(=O)C(C)(C)C5CC[C@]43C)C12 (stereo partly drawn) [Compound 11h, 2-(Pyridin-4-yl)-3-oxolupa-1,20(29)-dien-28-oic acid] | – | – | – | 21.3 | 10.8 | – | 28.4 | 10.8 | – | – | 25.1 | 30.6 | > 50 | 5.2 | 21 | 11 | 17 | 28 | 11 | > 50 | IC50 MRC-5 (MRC-5 lung fibroblasts; Table 1): below the detection limit; SI (selectivity index) (CCRF-CEM; [6]): >9.5; IC50 ([3]; Table 1): > 50 µM; IC50 BJ ([3]; Table 1): below the detection limit; IC50 (HCT 116; Table 1): 25 µM; IC50 (HCT116 p53–/–; Table 1): 31 µM |
| C=C(C)[C@@H]1CC[C@]2(C(=O)O)CC[C@]3(C)C(CCC4[C@@]5(C)C=C(c6cncnc6)C(=O)C(C)(C)C5CC[C@]43C)C12 (stereo partly drawn) [Compound 11i, 2-(Pyrimidin-5-yl)-3-oxolupa-1,20(29)-dien-28-oic acid] | – | – | – | – | 17.5 | 41.8 | – | – | – | – | 34.6 | – | > 50 | 19.7 | > 50 | 18 | 42 | > 50 | 25 | > 50 | SI (selectivity index) (CCRF-CEM; [6]): >2.5; IC50 ([3]; Table 1): > 50 µM; IC50 (HCT 116; Table 1): 35 µM; IC50 (HCT116 p53–/–; Table 1): 41 µM |
| C=C(C)[C@@H]1CC[C@]2(C(=O)O)CC[C@]3(C)C(CCC4[C@@]5(C)C=C(c6ccc7cn[nH]c7c6)C(=O)C(C)(C)C5CC[C@]43C)C12 (stereo partly drawn) [Compound 11n, 2-(Indazol-6-yl)-3-oxolupa-1,20(29)-dien-28-oic acid] | 26.5 | – | – | 15.1 | – | 21.9 | 20.5 | 12.1 | 22.3 | 35.1 | 14.9 | 16.8 | 27 | 4.9 | 15 | 8.3 | 22 | 21 | 12 | 22 | SI (selectivity index) (CCRF-CEM; [6]): 6.3; IC50 ([3]; Table 1): 35 µM; IC50 (HCT 116; Table 1): 15 µM; IC50 (HCT116 p53–/–; Table 1): 17 µM |
| C=C(C)[C@@H]1CC[C@]2(C(=O)OCc3ccccc3)CC[C@]3(C)C(CCC4[C@@]5(C)C=C(c6ccc7cn[nH]c7c6)C(=O)C(C)(C)C5CC[C@]43C)C12 (stereo partly drawn) [Compound 10n, Benzyl 2-(Indazol-6-yl)-3-oxolupa-1,20(29)-dien-28-oate] | > 50 | > 1.0 | > 50 | > 50 | > 50 | > 50 | > 50 | > 50 | > 50 | > 50 | > 50 | > 50 | – | – | – | – | – | – | – | – | – |
| C=C(C)[C@@H]1CC[C@]2(C(=O)OCc3ccccc3)CC[C@]3(C)C(CCC4[C@@]5(C)C=C(c6cccs6)C(=O)C(C)(C)C5CC[C@]43C)C12 (stereo partly drawn) [Compound 10c, Benzyl 2-(2-Thiophenyl)-3-oxolupa-1,20(29)-dien-28-oate] | > 50 | > 1.0 | > 50 | > 50 | > 50 | > 50 | > 50 | > 50 | > 50 | > 50 | > 50 | > 50 | – | – | – | – | – | – | – | – | – |
| C=C(C)[C@@H]1CC[C@]2(C(=O)OCc3ccccc3)CC[C@]3(C)C(CCC4[C@@]5(C)C=C(c6ccc7c(c6)OCCO7)C(=O)C(C)(C)C5CC[C@]43C)C12 (stereo partly drawn) [Compound 10j, Benzyl 2-(1,4-Benzodioxan)-3-oxolupa-1,20(29)-dien-28-oate] | > 50 | > 1.0 | > 50 | > 50 | > 50 | > 50 | > 50 | > 50 | > 50 | > 50 | > 50 | > 50 | – | – | – | – | – | – | – | – | – |
| C=C(C)[C@@H]1CC[C@]2(C(=O)OCc3ccccc3)CC[C@]3(C)C(CCC4[C@@]5(C)C=C(c6cncnc6)C(=O)C(C)(C)C5CC[C@]43C)C12 (stereo partly drawn) [Compound 10i, Benzyl 2-(5-Pyrimidinyl)-3-oxolupa-1,20(29)-dien-28-oate] | > 50 | > 1.0 | > 50 | > 50 | > 50 | > 50 | > 50 | > 50 | > 50 | > 50 | > 50 | > 50 | – | – | – | – | – | – | – | – | – |
| CN(C)c1ccccc1CN1CCCN(Cc2ccccc2N(C)C)C1c1ccncc1 [GANT-61, reference compound] | – | – | – | – | – | – | – | – | – | – | – | – | – | – | – | – | – | – | – | – | IC50 (DU-145 (prostate cancer); Table 1): > 50 µM |

From paper PMC11923649, “Novel C-2 Aromatic Heterocycle-Substituted Triterpenoids Inhibit Hedgehog Signaling in GLI1 Overexpression Cancer Cells” (ACS Omega, 2025)
